Source: patent publication EP3714904B1, “IMINODIACETIC ACID SUBSTITUTED CYCLODEXTRINS AS POTENTIATORS OF BETA-LACTAM ANTIBIOTICS” (NATIONAL CENTER FOR SCIENTIFIC RESEARCH "DEMOKRITOS" (NCSRD), priority 2019, dated 2020)
Like-named read-outs stand apart in the source and are kept apart here.

How the values were obtained:
Klebsiella pneumoniae = assay: MIC of β-lactams alone or with 50 µM IDACYD against clinical isolates; assay type: cell-based; details: Klebsiella pneumoniae, alone
Protocol: Further the in-vitro inhibitory activity of IDACYDs was tested against highly resistant pathogens. […] Table 2: Collection of clinical isolates used for in-vitro evaluation

Acinetobacter baumannii = assay: as above; assay type: cell-based; details: Acinetobacter baumannii, alone
Protocol: (§1) Further the in-vitro inhibitory activity of IDACYDs was tested against highly resistant pathogens. Tables 3, 4 and 5 show the effect of IDACYDs using a collection of 36 highly resistant Gram negative strains (Table 2, Kirby-Bauer disc diffusion method) producing NDM, VIM and IMP type MBLs as well as 6 isolates expressing serine beta-lactamases (ESBLs, AmpCs). […] Clinical isolates co-expressing ESBLs and/or AmpC β-lactamases along with MBLs where re-sensitized to both imipenem and meropenem, as expected. Table 2: Collection of clinical isolates used for in-vitro evaluation

Enterobacter gergoviae = assay: as above; assay type: cell-based; details: Pluralibacter gergoviae, alone
Protocol: as §1

Escherichia coli = assay: as above; assay type: cell-based; details: Escherichia coli, alone
Protocol: as §1

Proteus mirabilis = assay: as above; assay type: cell-based; details: Proteus mirabilis, alone
Protocol: as §1

Providencia stuartii = assay: as above; assay type: cell-based; details: Providencia stuartii, alone
Protocol: as §1

Serratia marcescens = assay: as above; assay type: cell-based; details: Serratia marcescens, read-out: Meropenem MIC; isolate EUG-815 (VIM, CMY); alone
Protocol: as §1

[1] = system: NDM-1 producing K. pneumoniae strain LA26; assay: Murine sepsis model: single dose treatment scheme-2; assay type: in vivo, CD-1 mice; details: meropenem monotherapy, single dose 10 mg/kg; within 48 h
Protocol: Example 9. […] Blood samples were collected at 0, 6 and 24 hours after injection of a single dose of antibiotic (4 infected animals for each timepoint), were serially diluted in normal saline (10^-1 to 10^-9) and plated on MH agar plates which were incubated for 16 hours at 37°C for determination of viable organisms. […] The resulting 3.0log10 reduction in the blood bacterial load in the presence of 120 mg/kg of the inhibitor β-IDACYD compared to the antibiotic itself confirmed the high repotentiation abilities of the inhibitor to carbapenems even for suboptimal antibiotic doses. […] Treatment was given in a form of a single shot 2h after infection and blood was drawn 0h, 6h and 24h post treatment initiation. All groups were of n=10. Error bars are indicative of SEM (n=2 replicates).

`C[C@@H](O)[C@H]1C(=O)N2C(C(=O)O)=C(S[C@@H]3CN[C@H](C(=O)N(C)C)C3)[C@H](C)[C@H]12` [Meropenem, reference compound] was tested, and the MIC (Klebsiella pneumoniae; read-out: Meropenem MIC, Kpn ESDY 5742 (IMP-1)) was 32 µg/mL, the MIC (Klebsiella pneumoniae; read-out: Meropenem MIC, Kpn LA 26 (NDM-1)) was 32 µg/mL and the MIC (Klebsiella pneumoniae; read-out: Meropenem MIC, Kpn LA 34 (VIM-1 CMY)) was 256 µg/mL. The MIC (Klebsiella pneumoniae; read-out: Meropenem MIC, Kpn LA 82/16 (VIM-1)) was 64 µg/mL, the MIC (Klebsiella pneumoniae; read-out: Meropenem MIC, Kpn LA 109/16 (VIM-1)) was 256 µg/mL and the MIC (Klebsiella pneumoniae; read-out: Meropenem MIC, Kpn LA419/16 (NDM-1)) was 16 µg/mL. The MIC (Klebsiella pneumoniae; read-out: Meropenem MIC, isolate ALX-47 (OXA-48,CTX-M)) was 8 µg/mL, the MIC (Klebsiella pneumoniae; read-out: Meropenem MIC, isolate ESDY-1780 (VIM, KPC)) was 64 µg/mL and the MIC (Klebsiella pneumoniae; read-out: Meropenem MIC, isolate ESDY-5742 (IMP)) was 16 µg/mL. The MIC (Klebsiella pneumoniae; read-out: Meropenem MIC, isolate EY-20S (CMY, SHV)) was 8 µg/mL, the MIC (Klebsiella pneumoniae; read-out: Meropenem MIC, isolate IT-17829 (CTXM, SHV)) was 32 µg/mL and the MIC (Klebsiella pneumoniae; read-out: Meropenem MIC, isolate L078/11 (KPC)) was 64 µg/mL. For the same molecule, the MIC (Klebsiella pneumoniae; read-out: Meropenem MIC, isolate LA-26 (NDM)) was 32 µg/mL, the MIC (Klebsiella pneumoniae; read-out: Meropenem MIC, isolate LA-27 (NDM, CTXM)) was 8 µg/mL and the MIC (Klebsiella pneumoniae; read-out: Meropenem MIC, isolate LA-28 (NDM, CTXM)) was 64 µg/mL. For the same molecule, the MIC (Klebsiella pneumoniae; read-out: Meropenem MIC, isolate LA-34 (VIM, CMY), first entry of Table 3) was 256 µg/mL, the MIC (Klebsiella pneumoniae; read-out: Meropenem MIC, isolate LA-34 (VIM, CMY), second entry of Table 3) was 64 µg/mL and the MIC (Klebsiella pneumoniae; read-out: Meropenem MIC, isolate LA-82/16 (VIM, SHV)) was 64 µg/mL. It also gave an MIC (Klebsiella pneumoniae; read-out: Meropenem MIC, isolate LA-419/16 (NDM,CTXM)) of 16 µg/mL, an MIC (Klebsiella pneumoniae; read-out: Meropenem MIC, isolate LAR-26I/15 (NDM, VIM, CTXM)) of 64 µg/mL and an MIC (Klebsiella pneumoniae; read-out: Meropenem MIC, isolate LAR-38I/15 (VIM, NDM, CTXM)) of 16 µg/mL. It also gave an MIC (Klebsiella pneumoniae; read-out: Meropenem MIC, isolate LAR-40II/15 (KPC)) of 64 µg/mL, an MIC (Klebsiella pneumoniae; read-out: Meropenem MIC, isolate LAR-2873 (VIM-12)) of 8 µg/mL and an MIC (Klebsiella pneumoniae; read-out: Meropenem MIC, isolate SEC-2 (VIM)) of 64 µg/mL. The MIC (Klebsiella pneumoniae; read-out: Meropenem MIC, isolate SEC-4 (VIM)) was 32 µg/mL, the MIC (Klebsiella pneumoniae; read-out: Meropenem MIC, isolate TZAN-59 (β-lactamase: None)) was 0.5 µg/mL and the MIC (Klebsiella pneumoniae; read-out: Meropenem MIC, isolate UoA 12/227 (VIM)) was 64 µg/mL. For the same molecule, the MIC (Klebsiella pneumoniae; read-out: Meropenem MIC, isolate UoA 1995 (VIM)) was 64 µg/mL, the MIC (Acinetobacter baumannii; read-out: Meropenem MIC, isolate TZAN-40 (VIM, OXA-58)) was 4 µg/mL and the MIC (Acinetobacter baumannii; read-out: Meropenem MIC, isolate TZAN-42 (VIM, OXA-58)) was 32 µg/mL. It also gave an MIC (Enterobacter gergoviae; read-out: Meropenem MIC, isolate AK-5227 (VIM, CMY)) of 2 µg/mL, an MIC (Enterobacter gergoviae; read-out: Meropenem MIC, isolate AK-5240 (VIM, CMY)) of 1 µg/mL and an MIC (Escherichia coli; read-out: Meropenem MIC, isolate TZAN-116 (VIM)) of 1 µg/mL. For the same molecule, the MIC (Escherichia coli; read-out: Meropenem MIC, isolate TZAN-541 (VIM)) was 2 µg/mL, the MIC (Proteus mirabilis; read-out: Meropenem MIC, Table 5, Pr m ESDY 15315 (VIM-1, CMY)) was 16 µg/mL and the MIC (Proteus mirabilis; read-out: Meropenem MIC, isolate ALX-13 (VIM, VEB)) was 32 µg/mL. The MIC (Proteus mirabilis; read-out: Meropenem MIC, isolate ESDY-17 (VIM, CMY)) was 0.25 µg/mL, the MIC (Proteus mirabilis; read-out: Meropenem MIC, isolate ESDY-15184 (VIM, CMY)) was 2 µg/mL and the MIC (Proteus mirabilis; read-out: Meropenem MIC, isolate ESDY-15315 (VIM, CMY)) was 4 µg/mL. It also gave an MIC (Providencia stuartii; read-out: Meropenem MIC, isolate ALX- 21 (VIM, VEB)) of 2 µg/mL, an MIC (Providencia stuartii; read-out: Meropenem MIC, isolate ALX-27 (VIM)) of 2 µg/mL and an MIC (Providencia stuartii; read-out: Meropenem MIC, isolate ESDY-4559 (VIM)) of 4 µg/mL. For the same molecule, the MIC (Providencia stuartii; read-out: Meropenem MIC, isolate ESDY-4563 (VIM, VEB)) was 2 µg/mL, the MIC (Serratia marcescens) was 256 µg/mL and the protection from death [1] was “unable to protect any mice from death”.
